Laboratory results taken from ChEMBL document CHEMBL1148593, “Matrix metalloproteinase target family landscape: a chemometrical approach to ligand selectivity based on protein binding site analysis” (J Med Chem, 2006).

Assays:
Interstitial collagenase = target: T1, Interstitial collagenase (Homo sapiens, UniProt P03956); experiment: Binding affinity to MMP1
T1 sequence (P03956 whole entry): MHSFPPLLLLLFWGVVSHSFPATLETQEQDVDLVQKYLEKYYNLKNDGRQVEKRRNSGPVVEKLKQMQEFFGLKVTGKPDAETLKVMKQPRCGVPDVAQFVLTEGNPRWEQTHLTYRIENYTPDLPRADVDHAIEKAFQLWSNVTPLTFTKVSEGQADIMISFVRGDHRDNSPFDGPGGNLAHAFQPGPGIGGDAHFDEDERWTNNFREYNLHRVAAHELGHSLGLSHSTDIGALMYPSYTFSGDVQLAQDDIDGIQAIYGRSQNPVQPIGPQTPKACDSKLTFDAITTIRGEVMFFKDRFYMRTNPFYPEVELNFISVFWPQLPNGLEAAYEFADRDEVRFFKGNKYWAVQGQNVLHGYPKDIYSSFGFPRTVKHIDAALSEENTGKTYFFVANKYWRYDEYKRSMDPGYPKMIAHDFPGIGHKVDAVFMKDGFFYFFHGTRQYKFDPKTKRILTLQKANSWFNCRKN

[1] = target: 72 kDa type IV collagenase (Homo sapiens, UniProt P08253); experiment: Binding affinity to MMP2
Stromelysin-1 = Stromelysin-1 (Homo sapiens, UniProt P08254); experiment: Binding affinity to MMP3
[2] = target: Matrix metalloproteinase-9 (Homo sapiens, UniProt P14780); experiment: Binding affinity to MMP9
Matrilysin = target: T2, Matrilysin (Homo sapiens, UniProt P09237); experiment: Binding affinity to MMP7
T2 sequence (P09237 whole entry): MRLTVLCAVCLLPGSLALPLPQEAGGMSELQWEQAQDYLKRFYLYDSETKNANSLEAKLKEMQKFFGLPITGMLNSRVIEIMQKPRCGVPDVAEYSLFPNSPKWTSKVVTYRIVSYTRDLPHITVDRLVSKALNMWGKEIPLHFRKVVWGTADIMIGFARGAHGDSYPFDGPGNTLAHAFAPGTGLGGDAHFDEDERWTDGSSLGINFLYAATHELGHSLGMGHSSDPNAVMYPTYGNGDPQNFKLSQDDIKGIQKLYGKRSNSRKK

Neutrophil collagenase = Neutrophil collagenase (Homo sapiens, UniProt P22894); experiment: Binding affinity to MMP8
[3] = target: T3, Interstitial collagenase (Homo sapiens) (UniProt P03956); experiment: Inhibition of MMP1 at 2 uM
T3 sequence (whole entry): T1 sequence (P03956 whole entry)

[4] = target: T4, Matrilysin (Homo sapiens) (UniProt P09237); experiment: Inhibition of MMP7 at 2 uM
T4 sequence (whole entry): T2 sequence (P09237 whole entry)

Stromelysin-3 = target: T5, Stromelysin-3 (Homo sapiens, UniProt P24347); experiment: Binding affinity to MMP11
T5 sequence (P24347 whole entry): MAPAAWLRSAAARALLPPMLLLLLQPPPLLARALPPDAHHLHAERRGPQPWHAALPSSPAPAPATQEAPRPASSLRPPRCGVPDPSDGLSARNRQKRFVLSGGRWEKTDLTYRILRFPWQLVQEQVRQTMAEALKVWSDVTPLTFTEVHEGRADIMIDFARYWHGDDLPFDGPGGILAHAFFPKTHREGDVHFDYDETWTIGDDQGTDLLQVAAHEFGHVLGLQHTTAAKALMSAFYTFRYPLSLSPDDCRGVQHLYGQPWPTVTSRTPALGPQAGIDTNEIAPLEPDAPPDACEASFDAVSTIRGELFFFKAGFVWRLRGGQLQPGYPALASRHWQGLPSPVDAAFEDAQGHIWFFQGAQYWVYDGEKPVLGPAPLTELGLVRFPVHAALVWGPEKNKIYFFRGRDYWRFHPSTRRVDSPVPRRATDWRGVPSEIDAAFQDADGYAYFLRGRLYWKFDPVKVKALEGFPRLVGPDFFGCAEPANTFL

Chain of Stromelysin-1 (P08254 whole entry): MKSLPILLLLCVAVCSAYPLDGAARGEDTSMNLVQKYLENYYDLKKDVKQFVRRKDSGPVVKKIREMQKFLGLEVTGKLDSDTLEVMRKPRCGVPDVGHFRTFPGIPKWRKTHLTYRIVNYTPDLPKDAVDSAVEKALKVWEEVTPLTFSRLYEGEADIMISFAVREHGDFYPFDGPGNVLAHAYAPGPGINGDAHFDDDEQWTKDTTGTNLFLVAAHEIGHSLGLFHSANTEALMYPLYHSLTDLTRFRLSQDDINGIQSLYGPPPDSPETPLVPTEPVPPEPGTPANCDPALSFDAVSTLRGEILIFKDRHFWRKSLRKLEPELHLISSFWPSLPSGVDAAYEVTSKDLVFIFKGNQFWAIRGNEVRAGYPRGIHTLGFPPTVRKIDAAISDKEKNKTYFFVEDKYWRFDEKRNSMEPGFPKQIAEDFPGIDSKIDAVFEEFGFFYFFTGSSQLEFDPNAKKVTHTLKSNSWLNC
Chain of 72 kDa type IV collagenase (P08253 whole entry): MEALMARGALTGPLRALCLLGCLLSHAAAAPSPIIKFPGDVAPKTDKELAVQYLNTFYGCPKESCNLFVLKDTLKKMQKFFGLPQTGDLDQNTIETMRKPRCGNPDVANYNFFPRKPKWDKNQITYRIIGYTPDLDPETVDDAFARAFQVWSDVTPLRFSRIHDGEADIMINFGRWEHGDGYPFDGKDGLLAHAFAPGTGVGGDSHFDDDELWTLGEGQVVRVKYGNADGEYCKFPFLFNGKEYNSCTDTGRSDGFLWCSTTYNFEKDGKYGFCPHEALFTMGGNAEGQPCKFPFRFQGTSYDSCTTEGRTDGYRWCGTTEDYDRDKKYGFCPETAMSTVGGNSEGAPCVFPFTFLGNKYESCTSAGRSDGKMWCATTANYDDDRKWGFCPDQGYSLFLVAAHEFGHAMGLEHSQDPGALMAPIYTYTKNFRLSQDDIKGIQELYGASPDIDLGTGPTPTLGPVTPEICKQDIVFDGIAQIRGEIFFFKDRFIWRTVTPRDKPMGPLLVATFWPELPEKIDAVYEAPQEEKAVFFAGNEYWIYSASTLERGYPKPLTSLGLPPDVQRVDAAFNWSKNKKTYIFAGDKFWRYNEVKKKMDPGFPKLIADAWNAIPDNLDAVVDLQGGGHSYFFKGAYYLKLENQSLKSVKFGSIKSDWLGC
Chain of Neutrophil collagenase (P22894 whole entry): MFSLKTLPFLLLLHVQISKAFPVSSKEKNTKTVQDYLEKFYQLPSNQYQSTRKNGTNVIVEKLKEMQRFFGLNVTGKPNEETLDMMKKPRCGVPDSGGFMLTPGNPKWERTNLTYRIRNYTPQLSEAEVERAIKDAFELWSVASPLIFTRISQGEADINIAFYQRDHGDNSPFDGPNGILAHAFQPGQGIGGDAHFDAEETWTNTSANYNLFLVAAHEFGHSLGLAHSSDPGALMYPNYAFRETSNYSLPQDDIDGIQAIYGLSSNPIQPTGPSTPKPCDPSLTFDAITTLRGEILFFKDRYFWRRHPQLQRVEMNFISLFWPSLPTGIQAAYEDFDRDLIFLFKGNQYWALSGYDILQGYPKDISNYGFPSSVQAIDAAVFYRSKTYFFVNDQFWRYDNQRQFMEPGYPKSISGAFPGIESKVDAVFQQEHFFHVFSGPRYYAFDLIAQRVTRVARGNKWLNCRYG
Chain of Matrix metalloproteinase-9 (P14780 whole entry): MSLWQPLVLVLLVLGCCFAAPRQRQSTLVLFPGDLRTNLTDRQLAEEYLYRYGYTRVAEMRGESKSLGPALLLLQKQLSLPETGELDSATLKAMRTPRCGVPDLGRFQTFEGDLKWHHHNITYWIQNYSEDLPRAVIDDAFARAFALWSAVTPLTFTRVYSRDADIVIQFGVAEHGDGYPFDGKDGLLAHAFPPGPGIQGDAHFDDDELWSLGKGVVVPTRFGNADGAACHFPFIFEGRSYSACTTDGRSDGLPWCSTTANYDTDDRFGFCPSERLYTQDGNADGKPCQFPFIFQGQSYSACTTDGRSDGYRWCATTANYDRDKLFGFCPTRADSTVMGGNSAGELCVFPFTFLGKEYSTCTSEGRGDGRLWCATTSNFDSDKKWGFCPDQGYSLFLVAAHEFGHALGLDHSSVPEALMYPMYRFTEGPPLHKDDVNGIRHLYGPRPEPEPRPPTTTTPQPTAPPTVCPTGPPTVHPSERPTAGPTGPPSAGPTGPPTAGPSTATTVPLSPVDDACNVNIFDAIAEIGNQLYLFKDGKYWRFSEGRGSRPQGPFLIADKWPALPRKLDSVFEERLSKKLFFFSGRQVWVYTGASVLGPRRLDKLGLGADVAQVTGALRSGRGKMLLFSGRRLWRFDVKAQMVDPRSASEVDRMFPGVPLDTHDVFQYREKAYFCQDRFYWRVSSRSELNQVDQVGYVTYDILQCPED

| Structure (SMILES) | IC50 (Interstitial collagenase) [µM] | IC50 [1] [µM] | IC50 (Stromelysin-1) [µM] | IC50 (Matrilysin) [µM] | IC50 (Neutrophil collagenase) [µM] | other results |
| --- | --- | --- | --- | --- | --- | --- |
| CNC(=O)C1CCCCNC(=O)CCC(C(=O)O)NC(CCc2ccccc2)C(=O)N1 (stereo not given) | – | – | – | – | – | Ki [1]: 8.1 µM; Ki (Stromelysin-1): 2.9 µM; Ki [2]: 6.6 µM; Ki (Neutrophil collagenase): 0.017 µM |
| CC(C)CC(C(=O)N[C@H]1CCCCCCCCCCNC1=O)[C@H](O)C(=O)NO (stereo not given in full) | 0.03 | 0.02 | 0.5 | 0.2 | 0.02 | – |

Continued, in another order:

| IC50 (Interstitial collagenase) [µM] | IC50 [1] [µM] | IC50 (Stromelysin-1) [µM] | IC50 (Matrilysin) [µM] | IC50 (Neutrophil collagenase) [µM] | Structure (SMILES) | other results |
| --- | --- | --- | --- | --- | --- | --- |
| > 1 | 0.0026 | > 1 | > 1 | – | O=C(Nc1ccc(S(=O)(=O)C[C@@H](Cc2c[nH]c3ccccc23)C(=O)O)cc1)c1ccc(Br)cc1 | IC50 [2]: 0.0027 µM |
| > 10 | – | – | – | 0.01 | O=C(O)C1Cc2ccccc2CN1S(=O)(=O)CCc1ccc(-c2ccc(Cl)cc2)cc1 (stereo not given) | – |
| – | – | – | – | 0.0025 | NC(=O)C(Cc1c[nH]c2ccccc12)NC(=O)C(CCCc1ccccc1)CP(=O)(O)C(Cc1ccccc1)NC(=O)OCc1ccccc1 (stereo not given) | inhibition [3]: 23%; inhibition [4]: 8%; Ki (Stromelysin-3): 0.005 µM |
